According to article PMC10975012, “The Active Glucuronide Metabolite of the Brain Protectant IMM-H004 with Poor Blood–Brain Barrier Permeability Demonstrates a High Partition in the Rat Brain via Multiple Mechanisms” (Pharmaceutics, 2024):

Key:
[1] = Uptake kinetics in hCMEC/D3 cells; assay type: cell-based, human; settings: human, hCMEC/D3 cells, 2–400 μmol/L, 10 min
Protocol: (§1) Uptake assays into hCMEC/D3 cells were conducted in 24-well plates. All incubations were carried out at 37 °C in triplicate unless otherwise noted. In time-dependent uptake studies, hCMEC/D3 cells were incubated with IMM-H004 (10 µmol/L) and IMM-H004G (50 µmol/L) dissolved in HBSS under gentle shaking for up to 30 min. To investigate the impact of incubation temperature on the uptake of IMM-H004 and IMM-H004G by hCMEC/D3 cells, incubation was performed at 4 or 37 °C for 10 min. To determine the kinetic parameters, the cells were incubated with IMM-H004 and IMM-H004G (2–400 µmol/L) for 10 min. The uptake data were fitted to the following equation using nonlinear least-square regression analysis in GraphPad Prism 9 (GraphPad, San Diego, CA, USA):(1) V=Vmax×S/Km+S+Kns×S where V is the uptake velocity (nmol/mg protein/min), and S is the initial concentration (μmol/L). Vmax, Km, and Kns represent the maximum uptake velocity (nmol/mg protein/min), the Michaelis–Menten constant (μmol/L), and nonsaturable uptake clearance (μL/mg protein/min), respectively. The saturable uptake of both IMM-H004 and IMM-H004G was plotted with the Eadie–Hofstee method by subtracting passive uptake from the total uptake.

hCMEC/D3 cells = test: Uptake kinetics in hCMEC/D3 cells; assay type: cell-based, human; settings: for reduction of uptake at 4 °C compared to 37 °C: 10 μmol/L; for reduction of uptake at 4 °C compared to 37 °C / Kns, passive diffusion rate / Vmax/Km ratio, transporter-mediated uptake: 10 min; for Kns, passive diffusion rate / Vmax/Km ratio, transporter-mediated uptake: 2–400 μmol/L
Protocol: as §1

[2] = Pharmacokinetics in rats with cerebral microdialysis; assay type: in vivo; settings: rat; for Kp: brain (cerebral cortex microdialysate) and plasma, read-out: Kp (AUCbrain/AUCplasma); for peak brain concentration: free concentration (microdialysis); for AUCbrain / concentration at 2 min / AUC: free concentration; for concentration at 2 min / AUC: plasma (free concentration); for AUC: read-out: AUCplasma
Protocol: Rats were anesthetized with isoflurane. Microdialysis intracerebral guide cannulas and CMA 12 Elite Probe (PAES membrane with a MWCO of 20 kDa, 2 mm membrane length (CMA/Microdialysis AB, Stockholm, Sweden)) were implanted into the cerebral cortex at the coordinates relative to bregma: medial/lateral = 3.0 mm; anterior/posterior = 0.5 mm; dorsal/ventral = −3.0 mm. After a 24 h recovery period, the intracerebral probe was connected to the microdialysis cannula, and Ringer’s solution was perfused at a flow rate of 2.0 μL/min. Then, IMM-H004 citrate or IMM-H004G (10 mg/kg) was injected intravenously (iv). Dialysate samples were collected every 5 to 60 min for a duration of 7 h. The probe recovery in vitro was determined by dialyzing a standard mixture of IMM-H004 (50 ng/mL) and IMM-H004G (300 ng/mL) infused with Ringer’s solution.
Blood samples were collected from the orbital plexus into heparinized tubes and subsequently centrifuged to separate the plasma. The concentrations of IMM-H004 and IMM-H004G in both the dialysate and plasma samples were determined using LC-MS/MS analysis. Subsequently, the free concentrations in the brain and plasma were corrected with probe recovery and fu for further analysis, respectively. The pharmacokinetic parameters were calculated via noncompartmental analysis (NCA) using Phoenix WinNonlin 6.3 (Pharsight Corporation, Sunnyvale, CA, USA). The brain–plasma partition coefficient (Kp) was determined as the ratio of the area under the concentration–time curve for the brain (AUCbrain) to that of the plasma (AUCplasma).

[3] = In vitro metabolism in rat brain homogenate; assay type: in vitro ADME
Protocol: Rat brains were homogenized in chilled saline (1:3, w/v) on ice to obtain the brain homogenate. The incubation mixtures composed of the brain homogenate (2 mg protein/mL), alamethicin (50 μg/mg protein), IMM-H004 (10 μmol/L), and UDPGA (5 mmol/L) in a final volume of 0.2 mL of Tris-HCl buffer (50 mmol/L, pH 7.4) containing 5 mmol/L of MgCl2. Before initiating the reaction, the brain homogenate was preincubated with alamethicin on ice for 15 min. Subsequently, IMM-H004 and UDPGA were added to initiate the reaction. After incubating at 37 °C for 60 min, the reaction was quenched by adding two volumes of acetonitrile containing IS (0.1 μg/mL). On the other hand, IMM-H004G (1 μmol/L) was incubated with the brain homogenate (2 mg protein/mL) for up to 4 h. The concentrations of IMM-H004 and IMM-H004G were determined by LC-MS/MS.

[4] = tested on: pyrilamine-sensitive H^+/OC antiporter; test: Identification of transporters using inhibitors in hCMEC/D3 cells: H+/OC antiporter; assay type: cell-based, human; settings: substrate 10 μmol/L; for reduction of uptake by quinidine: quinidine 100 μmol/L; for reduction of uptake by verapamil: verapamil 100 μmol/L
Protocol: The toxicity of all compounds, including inhibitors and substrates, toward hCMEC/D3 cells, was assessed using the 3-(4,5-Dimethylthiazol-2-yl)-2,5-diphenyltetrazolium bromide (MTT) reduction assay as described previously. To assess the effects of pyrilamine-sensitive proton-coupled organic cation (H^+/OC) antiporter, organic anion transporter (OAT), organic anion-transporting polypeptides (OATPs), organic cation transporter (OCT), and novel organic cation–carnitine transporter (OCTN) inhibitors on the uptake process, IMM-H004 or IMM-H004G (10 µmol/L) combined with the inhibitors were added to the medium after preincubating the cells with the inhibitors for 30 min. For evaluating the impact of the multidrug and toxin extrusion transporter (MATE), P-glycoprotein (P-gp), multidrug resistance protein (MRP), and breast cancer resistance protein (BCRP) on the uptake, IMM-H004 or IMM-H004G (10 µmol/L) was preincubated with the cells for 2 h before the addition of the inhibitors. After removing the supernatant, the cells were washed twice with prewarmed HBSS and incubated with fresh HBSS for 20 min. At the end of incubation, the supernatants were collected. The cells were washed with cold HBSS and lysed using RIPA buffer. The protein content of the lysed cells was determined using a bicinchoninic acid (BCA) assay kit (Beyotime Inc., Shanghai, China). The results were expressed as a percentage of the vehicle control.

[5] = In vivo metabolism of IMM-H004 in rat brain after intracerebroventricular injection; settings: for detection in brain regions: 6–60 min after icv injection of IMM-H004 3.8 μg/kg
Protocol: The metabolism of IMM-H004 in the brain was investigated through the intracerebroventricular (icv) injection of IMM-H004 in rats, and the drug concentration in each brain region was analyzed. The rats were fixed on a benchmark stereotactic instrument (Leica Biosystems, Deer Park, IL, USA) under isoflurane anesthesia. Using a microinjector connected to a syringe pump, a 5 μL solution of IMM-H004 was dissolved in artificial cerebrospinal fluid (ACSF) and injected (3.8 μg/kg) into the lateral ventricle. The injection coordinates were as follows: medial/lateral = 1.5 mm; anterior/posterior = −0.8 mm; dorsal/ventral = −4 mm. Animals were sacrificed at 6, 15, 30, 45, and 60 min after drug administration. The brains were collected and dissected on ice into the following regions: the cerebellum, brainstem, hypothalamus, hippocampus, midbrain, striatum, and cortex. The subsequent procedure for processing tissue samples was the same as the procedure described in Section 2.3.1.

[6] = after iv IMM-H004 citrate 10 mg/kg

Row | Km at 10 min [1] [µM] | Kns relative to that of IMM-H004G (hCMEC/D3 cells) [times] | reduction of uptake at 4 °C compared to 37 °C (hCMEC/D3 cells) [%] | Kns, passive diffusion rate (hCMEC/D3 cells) [μL/min/mg protein] | Vmax/Km ratio, transporter-mediated uptake (hCMEC/D3 cells) [μL/min/mg protein] | Kp [2, 6] | peak brain concentration ([2]; after iv IMM-H004G 10 mg/kg) [nmol/L] | AUCbrain ([2]; after iv IMM-H004G 10 mg/kg) [µM·h] | AUCbrain [2, 6] [µM·h] | concentration at 2 min ([2]; after iv IMM-H004G 10 mg/kg) [µM] | AUC [2, 6] [µM·h] | formation of IMM-H004G ([3]; IMM-H004 10 μmol/L, rat brain homogenate, 1 h) | reduction of uptake by quinidine [4] | reduction of uptake by verapamil [4] | AUCbrain relative to that of IMM-H004 [2, 6] [times] | AUCplasma relative to that of IMM-H004 [2, 6] [times] | Kp ([5]; hypothalamus and plasma, icv or intrathecal, 3.8 ug/kg, after icv injection of IMM-H004 3.8 μg/kg, read-out: hypothalamus-to-plasma AUC ratio) | SMILES | detection in brain regions [5] | stability of IMM-H004G (change in concentration) ([3]; 1 μmol/L, rat brain homogenate 2 mg/mL protein, 4 h)
1 | 89.5 | 8.77 | 57.1 | 0.877 | 18.8 | 1.39 | 35.1 | 0.0938 | 0.196 | 0.0398 | 0.141 | time-dependent | 57.7% | 61.5% | – | – | – | COc1cc(O)cc2oc(=O)c(N3CCN(C)CC3)c(C)c12 [IMM-H004] | detected in all brain regions | –
2 | 10.7 | – | 70.6 | 0.100 | 1.50 | 0.06 | 1712 | 1.923 | 1.053 | 40.2 | 16.4 | – | not affected | not affected | 5.4 | 116 | 3.13 | COc1cc(OC2OC(C(=O)O)C(O)C(O)C2O)cc2oc(=O)c(N3CCN(C)CC3)c(C)c12 (centres unmarked) [IMM-H004G] | only detected at lower concentrations in the hypothalamus | did not result in a reduction in its concentration
